Each molecule was assayed against T1, cgreGFP (Clytia gregaria, UniProt D7PM05) (assay: fluorescence titration (ex […] nm, em […] nm)). Settings: read-out: K d (apparent).
T1 construct: gene GFP2; full-length, N-terminal polyhistidine tag kept (pET-28a(+)-TEV, NdeI/BamHI), codon-optimized gene, expressed in E. coli BL21(DE3)
T1 sequence (D7PM05 1-235): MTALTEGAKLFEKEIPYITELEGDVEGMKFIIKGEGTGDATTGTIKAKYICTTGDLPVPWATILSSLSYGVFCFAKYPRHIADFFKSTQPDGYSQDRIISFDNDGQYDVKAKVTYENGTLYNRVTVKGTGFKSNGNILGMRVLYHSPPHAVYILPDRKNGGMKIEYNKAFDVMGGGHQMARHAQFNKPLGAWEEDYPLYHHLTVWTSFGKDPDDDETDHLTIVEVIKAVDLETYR
Assay type: binding

Going from Br [bromide] to Cl [chloride], the Kd rises from 15.1 ± 1.2 mM to 25.2 ± 2 mM (1.7-fold). The first binds more tightly here.

First: I [iodide]
Second: O=[N+]([O-])O [nitrate]
The Kd of the first is 2-fold lower: 5.3 mM for the first, 10.7 ± 1.2 mM for the second. The first binds more tightly here.

Reference: publication PMC13004581, “Physical Mechanisms of an Unconventional Green Fluorescent Protein Indicator for Chloride” (The Journal of Physical Chemistry. B, 2026)
